pIC50, pKd: −log10 of the molar value. Calls of active or inactive are those of the source. The rule behind the calls is not given here.
Tests used:
[1] = molecular target: T1, Alpha-ketoglutarate-dependent dioxygenase alkB homolog 3 (Homo sapiens, UniProt Q96Q83); experiment: Inhibition of recombinant human AlkBH3 assessed as reduction in formaldehyde release using 40-mer single N3-meC as substrate incubated for 60 mins followed by substrate addition measured after 15 mins by fluorescence assay
T1 sequence (Q96Q83 whole entry): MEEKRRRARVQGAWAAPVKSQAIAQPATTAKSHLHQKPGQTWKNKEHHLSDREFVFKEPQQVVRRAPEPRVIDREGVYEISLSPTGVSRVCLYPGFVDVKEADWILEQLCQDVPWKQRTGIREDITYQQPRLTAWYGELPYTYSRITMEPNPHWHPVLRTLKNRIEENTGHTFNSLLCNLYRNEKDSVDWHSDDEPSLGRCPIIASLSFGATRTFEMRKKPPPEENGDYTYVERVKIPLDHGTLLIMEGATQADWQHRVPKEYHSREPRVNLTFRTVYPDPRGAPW

[2] = molecular target: T2, Alpha-ketoglutarate-dependent dioxygenase alkB homolog 3 (Homo sapiens) (UniProt Q96Q83); experiment: Inhibition of recombinant human AlkBH3 assessed as reduction in formaldehyde release at 50 uM using 40-mer single N3-meC as substrate incubated for 60 mins followed by substrate addition measured after 15 mins by fluorescence assay
T2 sequence (whole entry): T1 sequence (Q96Q83 whole entry)

A549 [3] = experiment: Cytotoxicity against human A549 cells assessed as decrease in cell viability at 500 uM after 48 to 72 hrs by MTT assay; assay type: functional, cell-based
A549 [4] = experiment: Cytotoxicity against human A549 cells assessed as decrease in cell viability at 1 uM after 12 to 60 mins by MTT assay; assay type: functional, cell-based
[5] = molecular target: T2, Alpha-ketoglutarate-dependent dioxygenase alkB homolog 3 (Homo sapiens); experiment: Inhibition of AlkBH3 in human A549 cells assessed as increase in MMS-induced cytotoxicity at 1 uM after 48 hrs by MTT assay; assay type: cell-based
A549 [6] = experiment: Cytotoxicity against human A549 cells assessed as decrease in cell viability after 48 to 72 hrs by MTT assay; assay type: functional, cell-based
[7] = molecular target: T2, Alpha-ketoglutarate-dependent dioxygenase alkB homolog 3 (Homo sapiens); experiment: Binding affinity to recombinant human AlkBH3 at 12 uM after 1 hr by far-UV circular dichroism spectroscopy
[8] = molecular target: T2, Alpha-ketoglutarate-dependent dioxygenase alkB homolog 3 (Homo sapiens); experiment: Binding affinity to recombinant human AlkBH3 at 12 uM after 1 hr by near-UV circular dichroism spectroscopy
[9] = molecular target: T1, Alpha-ketoglutarate-dependent dioxygenase alkB homolog 3; experiment: Binding affinity to recombinant human AlkBH3 incubated for 2 mins by isothermal titration calorimetric method
[10] = molecular target: T2, Alpha-ketoglutarate-dependent dioxygenase alkB homolog 3 (Homo sapiens); experiment: Competitive inhibition of recombinant human AlkBH3 assessed as reduction in formaldehyde release at 50 to 500 uM using 40-mer internal N3me-oligo-dC as substrate incubated for 60 mins followed by substrate addition measured after 15 mins by Lineweaver-Burk plot analysis
[11] = molecular target: T2, Alpha-ketoglutarate-dependent dioxygenase alkB homolog 3 (Homo sapiens); experiment: Mixed type inhibition of recombinant human AlkBH3 assessed as reduction in formaldehyde release at 50 to 500 uM using varying levels of 2OG as substrate incubated for 60 mins followed by substrate addition measured after 15 mins by Lineweaver-Burk plot analysis

Row | SMILES | pIC50 [1] | also measured
1 | O=C1C(c2ccccc2)=C(c2ccccc2)c2cc(-c3ccccc3)ccc21 | < 4.30 | –
2 | COc1ccc(C2=C(Br)C(=O)c3ccc(C)cc32)cc1 | 4.36 | –
3 | COc1cccc(C2=C(c3cccc(OC)c3)c3cc(C)ccc3C2=O)c1 | < 4.30 | –
4 | Cc1ccc2c(c1)C(c1ccc(Cl)c(Cl)c1)=C(c1ccc(Cl)c(Cl)c1)C2=O | 4.49 | inhibition [2]: Active
5 | Cc1ccc2c(c1)C(c1cccc3ccccc13)=C(Br)C2=O | < 4.30 | –
6 | COc1ccc(C2=C(Cl)C(=O)c3ccc(C)cc32)cc1 | < 4.30 | Activity (A549 [3]): inactive; Activity (A549 [4]): inactive; inhibition [5]: inactive
7 | COc1ccc(C2=C(Br)C(=O)c3ccc(C)cc32)cc1OC | < 4.30 | –
8 | COc1cc(OC)cc(C2=C(Br)C(=O)c3ccc(C)cc32)c1 | < 4.30 | –
9 | COc1ccc(C2=C(c3ccc(OC)c(OC)c3)c3cc(-c4ccc(C)cc4)ccc3C2=O)cc1OC | < 4.30 | –
10 | Cc1ccc(C2=C(Br)C(=O)c3ccc(C)cc32)cc1 | < 4.30 | –
11 | Cc1ccc(C2=C(c3ccc(C)cc3)c3cc(C)ccc3C2=O)cc1 | < 4.30 | –
12 | COc1ccc(C2=C(c3cc(OC)cc(OC)c3)c3cc(C)ccc3C2=O)cc1 | < 4.30 | –
13 | Cc1ccc2c(c1)C(c1ccccc1)=C(Br)C2=O | < 4.30 | –
14 | COc1ccc(C2=C(c3cc(OC)cc(OC)c3)C(=O)c3ccc(C)cc32)cc1 | < 4.30 | –
15 | Cc1ccc2c(c1)C(c1ccccc1)=C(c1ccccc1)C2=O | < 4.30 | –
16 | COc1ccc(C2=C(c3ccc(OC)c(OC)c3)c3cc(C)ccc3C2=O)cc1OC | < 4.30 | –

Further lines, with some results ahead:

Row | pIC50 [1] | SMILES | also measured
17 | < 4.30 | COc1ccc(C2=C(c3cc(OC)cc(OC)c3)C(=O)c3ccc(-c4ccc(C)cc4)cc32)cc1 | –
18 | 4.88 | COc1cccc(C2=C(c3cccc(OC)c3)c3cc(-c4ccc(C)cc4)ccc3C2=O)c1 | inhibition [2]: Active
19 | < 4.30 | COc1ccc(C2=C(c3ccc(OC)c(OC)c3)c3cc(-c4ccccc4)ccc3C2=O)cc1OC | –
20 | < 4.30 | COc1cccc(C2=C(c3cccc(OC)c3)c3cc(-c4ccccc4)ccc3C2=O)c1 | –
21 | < 4.30 | COc1ccc(C2=C(Cl)C(=O)c3ccc(-c4ccccc4)cc32)cc1 | pIC50 (A549 [6]): 3.43; Activity (A549 [4]): inactive; inhibition [5]: inactive
22 | 5.01 | COc1ccc(C2=C(Cl)C(=O)c3ccc(-c4ccc(C)cc4)cc32)cc1 | inhibition [2]: Active; Activity [7]: Active; Activity [8]: Active; pKd [9]: 5.11; inhibition [10]: Active; inhibition [11]: Active; Activity (A549 [6]): Dose-dependent effect; pIC50 (A549 [6]): 4.74; Activity (A549 [4]): Active; inhibition [5]: Active
23 | < 4.30 | COc1ccc(C2=C(c3ccc(OC)cc3)c3cc(C)ccc3C2=O)cc1 | –
24 | < 4.30 | COc1ccc(C2=C(c3cc(OC)cc(OC)c3)C(=O)c3ccc(-c4ccccc4)cc32)cc1 | –
25 | < 4.30 | COc1ccc(C2=C(c3ccc(OC)cc3)c3cc(-c4ccccc4)ccc3C2=O)cc1 | –
